# Measured values as given in the supplement of paper PMC10307832.
# Legend:
# Experiment in all cases: relative viability (nuclei count vs DMSO), 5 days (fraction); higher = more cells survive
# Etoposide + Decitabine = compound: COc1cc([C@@H]2c3cc4c(cc3[C@@H](O[C@@H]3O[C@@H]5CO[C@@H](C)O[C@H]5[C@H](O)[C@H]3O)[C@H]3COC(=O)[C@H]23)OCO4)cc(OC)c1O [Etoposide] + Nc1ncn([C@H]2C[C@H](O)[C@@H](CO)O2)c(=O)n1 [Decitabine] (partner 2 µM)
# Outline: (§1)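 The day after seeding in 1536-well plates, lung cancer cell lines were treated by pin tool with a single drug, or with a fixed anchor-drug dose together with five library-drug doses (not always all listed) in √10 steps. After 5 days, a combined fix-and-stain solution (final 0.05% Triton X-100, 1% formaldehyde, 1 ug/ml Hoechst) was added. Nuclei counted on 4× images gave relative viability as treated counts over vehicle counts, reported as the median of duplicate plates.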
# Bleomycin + Pemetrexed = compound: CC1=C(N=C(N=C1N)[C@H](CC(=O)N)NC[C@@H](C(=O)N)N)C(=O)N[C@@H]([C@H](C2=CN=CN2)OC3C(C(C(C(O3)CO)O)O)OC4C(C(C(C(O4)CO)O)OC(=O)N)O)C(=O)N[C@H](C)[C@H]([C@H](C)C(=O)N[C@@H]([C@@H](C)O)C(=O)NCCC5=NC(=CS5)C6=NC(=CS6)C(=O)NCCC[S+](C)C)O [Bleomycin] + Nc1nc2[nH]cc(CCc3ccc(C(=O)N[C@@H](CCC(=O)O)C(=O)O)cc3)c2c(=O)[nH]1 [Pemetrexed] (partner 0.2 µM); conditions: main component drawn
# Outline: as §1
# Etoposide + Olaparib = compound: COc1cc([C@@H]2c3cc4c(cc3[C@@H](O[C@@H]3O[C@@H]5CO[C@@H](C)O[C@H]5[C@H](O)[C@H]3O)[C@H]3COC(=O)[C@H]23)OCO4)cc(OC)c1O [Etoposide] + O=C(c1cc(Cc2n[nH]c(=O)c3ccccc23)ccc1F)N1CCN(C(=O)C2CC2)CC1 [Olaparib] (partner 8 µM)
# Outline: as §1
# Etoposide + OSI-027 = compound: COc1cc([C@@H]2c3cc4c(cc3[C@@H](O[C@@H]3O[C@@H]5CO[C@@H](C)O[C@H]5[C@H](O)[C@H]3O)[C@H]3COC(=O)[C@H]23)OCO4)cc(OC)c1O [Etoposide] + COc1cccc2cc(-c3nc([C@H]4CC[C@H](C(=O)O)CC4)n4ncnc(N)c34)[nH]c12 [OSI-027] (partner 0.5 µM)
# Outline: as §1
Cell Line,relative viability (Etoposide + Decitabine; first compound 0.01 µM),relative viability (Etoposide + Decitabine; first compound 0.03162 µM),relative viability (Etoposide + Decitabine; first compound 0.1 µM),relative viability (Etoposide + Decitabine; first compound 0.3162 µM),relative viability (Etoposide + Decitabine; first compound 1 µM),relative viability (Bleomycin + Pemetrexed; first compound 0.01 µM),relative viability (Bleomycin + Pemetrexed; first compound 0.03162 µM),relative viability (Bleomycin + Pemetrexed; first compound 0.1 µM),relative viability (Bleomycin + Pemetrexed; first compound 0.3162 µM),relative viability (Bleomycin + Pemetrexed; first compound 1 µM),relative viability (Etoposide + Olaparib; first compound 0.01 µM),relative viability (Etoposide + Olaparib; first compound 0.03162 µM),relative viability (Etoposide + Olaparib; first compound 0.1 µM),relative viability (Etoposide + Olaparib; first compound 0.3162 µM),relative viability (Etoposide + Olaparib; first compound 1 µM),relative viability (Etoposide + OSI-027; first compound 0.01 µM),relative viability (Etoposide + OSI-027; first compound 0.03162 µM),relative viability (Etoposide + OSI-027; first compound 0.1 µM),relative viability (Etoposide + OSI-027; first compound 0.3162 µM),relative viability (Etoposide + OSI-027; first compound 1 µM)
LCLC-103H,0.763,0.835,0.766,0.71,0.599,0.452,0.443,0.455,0.487,0.419,0.786,0.803,0.77,0.665,0.383,0.515,0.516,0.392,0.55,0.424
RERF-LC-KJ,0.643,0.638,0.54,0.579,0.335,0.416,0.504,0.391,0.261,0.142,0.827,0.877,0.861,0.633,0.417,0.529,0.615,0.382,0.613,0.429
BEN,0.742,0.769,–,0.692,0.476,0.809,0.757,0.723,0.616,0.679,0.938,1.01,–,0.936,0.672,0.266,0.306,–,0.297,0.318
NCI-H1666,0.746,0.798,0.693,0.582,0.452,0.72,0.659,0.804,0.578,0.673,0.702,0.642,0.758,0.529,0.497,0.853,0.812,0.678,0.528,0.408
LC-2-ad,0.778,0.682,0.922,0.741,0.566,0.267,0.265,0.251,0.254,0.219,0.349,0.692,0.771,0.412,0.274,0.81,0.839,0.473,0.42,0.25
SW 1573,0.434,0.5,0.243,0.159,0.0836,0.755,0.691,0.572,0.44,0.225,0.45,0.397,0.395,0.16,0.0987,0.707,0.593,0.277,0.265,0.116
ChaGo-K-1,0.448,0.546,0.397,0.291,0.229,0.267,0.251,0.245,0.261,0.24,0.399,0.44,0.332,0.219,0.179,0.487,0.689,0.466,0.285,0.174
COR-L 105,0.616,0.613,0.567,0.605,0.569,0.949,1.06,0.971,0.468,0.573,0.719,0.859,0.701,0.572,0.654,0.756,0.851,0.432,0.669,0.556
NCI-H1975,0.371,0.757,0.4,0.249,0.212,0.267,0.252,0.219,0.175,0.166,0.688,1.02,0.881,0.487,0.252,0.733,0.975,0.594,0.748,0.27
NCI-H1993,–,0.609,0.482,0.599,0.461,0.649,0.584,0.496,0.469,0.514,–,0.884,0.777,0.658,0.54,0.565,0.452,0.53,0.508,0.522
SK-LU-1,0.561,0.604,0.513,0.306,0.252,0.934,1.04,0.965,0.473,0.465,0.407,0.511,0.348,0.238,0.193,0.358,0.373,0.251,0.174,0.172
NCI-H2347,0.6,0.628,0.573,0.443,0.411,0.401,0.427,0.435,0.383,0.423,0.55,0.543,0.58,0.353,0.411,0.365,0.338,0.325,0.358,0.32
HCC-366,0.357,0.334,0.189,0.102,0.0877,0.169,0.207,0.178,0.0708,0.0498,0.292,0.304,0.217,0.0515,0.0449,0.911,1.16,0.466,0.374,0.0799
EMC-BAC-2,0.938,0.893,0.606,0.323,0.298,0.416,0.4,0.419,0.476,0.324,0.443,0.413,0.352,0.249,0.214,0.353,0.383,0.294,0.23,0.15
NCI-H3122,0.465,0.536,0.384,0.385,0.249,0.214,0.205,0.201,0.165,0.166,0.456,0.587,0.634,0.297,0.21,0.799,0.985,0.404,0.722,0.349
NCI-H358,0.229,0.212,0.155,0.136,0.103,0.164,0.197,0.168,0.183,0.175,0.692,0.519,0.521,0.104,0.0937,0.711,0.757,0.366,0.136,0.0875
NCI-H1944,0.396,0.459,0.384,0.36,0.296,0.36,0.398,0.313,0.216,0.157,0.378,0.417,0.305,0.265,0.197,0.417,0.52,0.344,0.294,0.205
NCI-H2342,0.599,0.677,0.477,0.373,0.368,0.837,0.759,0.685,0.539,0.62,0.474,0.398,0.267,0.208,0.211,0.707,0.649,0.51,0.402,0.352
EPLC-272H,0.339,0.412,0.338,0.328,0.297,0.294,0.198,0.146,0.121,0.131,0.833,0.685,0.704,0.474,0.254,0.287,0.293,0.209,0.326,0.243
NCI-H1915,0.267,0.261,0.256,0.26,0.245,0.428,0.394,0.31,0.211,0.146,0.261,0.268,0.309,0.213,0.194,0.598,0.637,0.492,0.572,0.504
NCI-H647,0.363,0.369,0.31,0.193,0.175,0.198,0.153,0.196,0.0716,0.0627,0.459,0.516,0.33,0.0871,0.0592,0.579,0.627,0.456,0.491,0.267
NCI-H441,0.273,0.239,0.241,0.213,0.169,0.248,0.251,0.267,0.217,0.244,0.516,0.463,0.393,0.164,0.155,0.625,0.638,0.416,0.267,0.224
NCI-H23,0.333,0.317,0.291,0.235,0.242,0.419,0.342,0.285,0.187,0.171,0.263,0.283,0.295,0.174,0.166,0.754,0.609,0.406,0.542,0.207
NCI-H522,0.702,0.655,0.502,0.872,0.571,0.844,0.815,0.85,0.49,0.321,0.593,0.724,0.811,0.59,0.539,0.647,0.77,0.657,0.709,0.71
NCI-H650,0.318,0.339,0.278,0.205,0.174,0.708,0.951,0.78,0.479,0.34,0.393,0.317,0.314,0.184,0.152,0.571,0.506,0.44,0.443,0.249
SK-MES-1,0.344,0.481,0.35,0.238,0.199,0.767,0.899,0.807,0.379,0.213,0.697,0.785,0.56,0.257,0.19,0.523,0.616,0.544,0.437,0.189
NCI-H2170,0.463,0.449,–,0.386,0.342,0.255,0.263,0.244,0.235,0.234,0.581,0.621,–,0.514,0.29,0.697,0.76,0.44,0.736,0.536
NCI-H2085,0.609,0.573,0.484,0.373,0.374,0.878,0.954,0.811,0.347,0.447,0.755,0.731,0.746,0.375,0.3,0.542,0.705,0.533,0.676,0.373
NCI-H838,0.445,0.487,0.49,0.367,0.248,0.247,0.227,0.232,0.19,0.19,0.757,0.782,0.64,0.31,0.2,0.37,0.43,0.307,0.403,0.325
NCI-H460,0.432,0.454,0.319,0.105,0.0405,0.0698,0.0674,0.0717,0.0385,0.0443,0.395,0.314,0.247,0.0642,0.047,0.601,0.731,0.415,0.0887,0.0402
